# Patent US20250000872A1, “FORMULATIONS AND DOSING REGIMENS FOR RIP1 KINASE INHIBITORS FOR TREATING AUTOIMMUNE AND INFLAMMATORY DISEASES” (Eli Lilly and Company, priority 2023, published 2025)
# Legend:
# CYP2D6 = CYP2D6 (Homo sapiens, UniProt P10635); assay: In vitro drug-drug interaction studies: CYP2D6 inhibition; format: in vitro ADME; conditions: based upon in vitro studies
# [1] = Yan et al. ASCPT 2021 poster, cited from earlier work
# [2] = Rabbit embryofetal development study; format: in vivo; conditions: female, rabbit, in vivo, po; plasma toxicokinetics on Gestational Day 19, 120 mg/kg/day; read-out: AUC0-24 at rabbit EFD NOEL
# rabbits = assay: Rabbit embryofetal development study; format: in vivo
# monkeys = assay: Repeat-dose toxicity studies in monkeys (up to 9-month); format: in vivo
# [3] = as above; format: in vivo; conditions: monkey, in vivo
# [4] = Phase I first-in-human study: safety, tolerability and PK of single and multiple doses in healthy volunteers; format: in vivo; conditions: for AUC(0-t): human, estimated from AUC0-∞ at single dose of 125 mg in phase 1 study Part 3
# Procedure: The study was conducted in 3 parts: single-ascending doses (Part 1A), multiple-ascending doses (Part 2), and formulation assessment (Part 1B and Part 3).
# OATP1B3 = biological target: T1, OATP1B3 (Homo sapiens, UniProt Q9NPD5); assay: In vitro drug-drug interaction studies: OATP1B3 transporter inhibition; format: in vitro ADME; conditions: based upon in vitro studies
# T1 sequence (Q9NPD5 1-702): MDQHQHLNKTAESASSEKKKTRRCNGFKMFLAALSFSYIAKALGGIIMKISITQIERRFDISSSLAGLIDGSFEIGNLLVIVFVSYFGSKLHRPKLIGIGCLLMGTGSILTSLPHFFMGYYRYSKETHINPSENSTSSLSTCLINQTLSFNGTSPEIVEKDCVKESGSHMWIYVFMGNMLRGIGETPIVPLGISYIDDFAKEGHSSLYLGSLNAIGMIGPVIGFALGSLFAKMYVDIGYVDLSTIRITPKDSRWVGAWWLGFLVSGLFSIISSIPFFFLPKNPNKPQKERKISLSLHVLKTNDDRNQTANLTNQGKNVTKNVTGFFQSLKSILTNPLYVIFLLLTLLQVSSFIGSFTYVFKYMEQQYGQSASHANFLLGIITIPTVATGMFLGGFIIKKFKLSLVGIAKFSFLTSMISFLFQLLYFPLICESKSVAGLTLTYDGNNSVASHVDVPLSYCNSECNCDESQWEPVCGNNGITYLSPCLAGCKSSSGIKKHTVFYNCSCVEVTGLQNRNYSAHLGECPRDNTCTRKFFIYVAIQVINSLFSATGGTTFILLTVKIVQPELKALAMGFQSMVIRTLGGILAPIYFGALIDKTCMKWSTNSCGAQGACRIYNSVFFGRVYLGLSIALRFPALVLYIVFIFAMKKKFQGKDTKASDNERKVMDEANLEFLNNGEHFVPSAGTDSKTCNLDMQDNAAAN
# CYP2C9 = CYP2C9 (Homo sapiens, UniProt P11712); assay: In vitro drug-drug interaction studies: CYP2C9 inhibition; format: in vitro ADME; conditions: based upon in vitro studies
# Chain of CYP2C9 (P11712 whole entry): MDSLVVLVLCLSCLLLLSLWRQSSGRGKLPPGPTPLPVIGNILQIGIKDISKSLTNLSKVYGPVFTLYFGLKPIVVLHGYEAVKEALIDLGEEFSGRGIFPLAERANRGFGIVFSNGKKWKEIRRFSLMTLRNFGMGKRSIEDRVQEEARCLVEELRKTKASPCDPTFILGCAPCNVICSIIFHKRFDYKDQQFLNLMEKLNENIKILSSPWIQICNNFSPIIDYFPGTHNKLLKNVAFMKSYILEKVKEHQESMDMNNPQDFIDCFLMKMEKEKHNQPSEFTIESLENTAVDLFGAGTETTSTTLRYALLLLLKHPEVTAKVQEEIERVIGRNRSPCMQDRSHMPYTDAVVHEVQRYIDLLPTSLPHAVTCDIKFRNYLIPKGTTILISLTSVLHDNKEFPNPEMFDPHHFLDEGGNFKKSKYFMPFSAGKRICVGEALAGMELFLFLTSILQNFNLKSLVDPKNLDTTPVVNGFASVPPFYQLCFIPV
# [5] = Phase 1 open-label single-dose fixed-sequence study: solid dispersion oral suspension vs crystalline freebase tablet, healthy participants; format: in vivo, human; conditions: amorphous vs corresponding crystalline preparation
# Source text: Each participant received both formulations in 2 separate dosing periods.
# The median tmax was longer for the tablet compared with the oral suspension. The geometric mean t1/2 was similar between formulations. […] Between-participant CV for AUC (0-tlast), AUC (0-∞), and Cmax was higher for the tablet compared with the oral suspension.
# P-gp = P-gp (Homo sapiens, UniProt P08183); assay: In vitro drug-drug interaction studies: P-gp transporter inhibition; format: in vitro ADME; conditions: based upon in vitro studies
# Chain of P-gp (P08183 whole entry): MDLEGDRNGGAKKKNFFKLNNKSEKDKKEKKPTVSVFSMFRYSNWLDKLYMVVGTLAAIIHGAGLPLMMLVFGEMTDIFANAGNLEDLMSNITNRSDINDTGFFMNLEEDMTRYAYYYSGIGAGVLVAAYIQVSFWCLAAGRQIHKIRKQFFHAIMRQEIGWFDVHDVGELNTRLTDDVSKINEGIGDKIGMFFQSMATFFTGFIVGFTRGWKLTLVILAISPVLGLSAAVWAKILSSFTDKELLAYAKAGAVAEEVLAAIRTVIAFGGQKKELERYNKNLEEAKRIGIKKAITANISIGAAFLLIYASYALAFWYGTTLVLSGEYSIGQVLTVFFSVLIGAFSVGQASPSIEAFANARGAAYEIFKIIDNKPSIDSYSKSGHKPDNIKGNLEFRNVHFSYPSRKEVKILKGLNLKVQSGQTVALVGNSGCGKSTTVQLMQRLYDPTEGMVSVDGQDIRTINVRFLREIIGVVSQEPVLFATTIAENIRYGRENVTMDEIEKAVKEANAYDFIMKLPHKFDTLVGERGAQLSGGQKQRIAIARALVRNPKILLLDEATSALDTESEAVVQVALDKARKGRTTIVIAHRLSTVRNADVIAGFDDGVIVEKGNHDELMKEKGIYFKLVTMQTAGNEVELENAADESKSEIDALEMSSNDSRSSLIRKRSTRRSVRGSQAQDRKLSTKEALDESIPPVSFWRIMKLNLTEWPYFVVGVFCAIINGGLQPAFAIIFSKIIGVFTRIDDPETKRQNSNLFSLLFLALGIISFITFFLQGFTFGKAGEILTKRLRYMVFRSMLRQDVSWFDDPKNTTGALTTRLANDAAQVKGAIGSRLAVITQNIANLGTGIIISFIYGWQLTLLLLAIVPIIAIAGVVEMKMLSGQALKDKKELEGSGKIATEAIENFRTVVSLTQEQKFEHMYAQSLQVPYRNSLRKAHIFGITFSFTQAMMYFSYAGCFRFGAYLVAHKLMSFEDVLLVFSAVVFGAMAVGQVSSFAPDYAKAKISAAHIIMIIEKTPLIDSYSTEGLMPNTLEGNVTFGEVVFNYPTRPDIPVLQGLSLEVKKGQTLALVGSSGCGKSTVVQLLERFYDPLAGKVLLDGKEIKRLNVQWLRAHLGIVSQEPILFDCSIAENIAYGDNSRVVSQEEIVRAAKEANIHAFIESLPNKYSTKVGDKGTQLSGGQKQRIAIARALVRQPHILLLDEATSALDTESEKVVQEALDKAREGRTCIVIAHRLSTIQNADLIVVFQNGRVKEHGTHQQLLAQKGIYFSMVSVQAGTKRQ
# [6] = 6-month repeat-dose toxicity study in rats; format: in vivo; conditions: rat, in vivo, po, 1000 mg/kg/day
# [7] = AUC in animals/(predicted) AUC in humans
# Chain of CYP2D6 (P10635 whole entry): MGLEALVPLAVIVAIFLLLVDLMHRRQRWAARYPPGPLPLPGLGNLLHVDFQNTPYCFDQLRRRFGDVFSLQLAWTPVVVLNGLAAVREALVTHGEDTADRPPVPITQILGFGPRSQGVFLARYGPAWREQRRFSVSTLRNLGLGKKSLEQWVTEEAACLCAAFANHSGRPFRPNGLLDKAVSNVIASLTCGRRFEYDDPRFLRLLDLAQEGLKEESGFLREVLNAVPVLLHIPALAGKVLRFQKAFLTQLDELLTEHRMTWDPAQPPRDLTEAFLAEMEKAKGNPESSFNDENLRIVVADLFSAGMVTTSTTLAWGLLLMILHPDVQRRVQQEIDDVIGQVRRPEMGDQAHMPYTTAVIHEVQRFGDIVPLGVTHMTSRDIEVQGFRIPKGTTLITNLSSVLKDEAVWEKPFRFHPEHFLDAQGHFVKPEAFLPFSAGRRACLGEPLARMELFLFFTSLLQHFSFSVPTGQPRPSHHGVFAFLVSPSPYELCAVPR
compound,measurement,setting,value
"CN1C(=O)[C@@H](NC(=O)c2n[nH]c(Cc3ccccc3)n2)COc2ccc(C#CC(C)(C)O)cc21 [Compound I, (S)-5-benzyl-N-(7-(3-hydroxy-3-methylbut-1-yn-1-yl)-5-methyl-4-oxo-2,3,4,5-tetrahydrobenzo[b][1,4]oxazepin-3-yl)-1H-1,2,4-triazole-3-carboxamide]",inhibition of drugs metabolized by CYP2D6,CYP2D6,may inhibit
same,safety and tolerability,[1]; following single and multiple doses,"generally safe, and well tolerated"
same,pharmacokinetics linearity,[1]; tested dose range up to 1000 mg,linear pharmacokinetics
same,AUC(0-t),[2],464 µg·h/mL
same,"Margin of Safety, rabbit EFD NOEL vs human 50 mg",rabbits; [7],29 X
same,"Margin of Safety, rabbit EFD NOEL vs human 125 mg",rabbits; [7],12 X
same,"developmental and reproductive toxicology outcome, rabbits",rabbits; concerns for women of childbearing potential,did not reveal any concerns
same,Rabbit EFD NOEL dose,rabbits; rabbit embryofetal development study,120 mg/kg/day
same,"Margin of Safety, monkey NOAEL vs human 50 mg",monkeys; [7],17 X
same,"Margin of Safety, monkey NOAEL vs human 125 mg",monkeys; [7],7 X
same,doses with mortality related to secondary infections,"monkeys; monkeys, toxicology studies up to 9 months",≥ 250 mg/kg/day
same,NOAEL at 9 months,[3],150 mg/kg
same,AUC(0-t),"[3]; po, plasma toxicokinetics on Day 273, 150 mg/kg/day, read-out: AUC0-24 at monkey NOAEL",278 µg·h/mL
same,Exposure versus dose,[4]; dose range of 12 to 1000 mg,increased in a proportional manner
same,AUC(0-t),"[4]; plasma, oral, 0.7 mg/kg/day, read-out: AUC0-24, human dose 50 mg",16 µg·h/mL
same,AUC(0-t),"[4]; plasma, oral, 1.8 mg/kg/day, read-out: AUC0-24, human dose 125 mg",40.1 µg·h/mL
same,half-life,"[4]; plasma, oral, human subjects",13 to 15 h
same,inhibition of substrates of OATP1B3 transporter,OATP1B3,may also inhibit
same,inhibition of drugs metabolized by CYP2C9,CYP2C9,may inhibit
same,"bioavailability, amorphous state (solid dispersion) over crystalline form",[5],significantly improved
same,inhibition of substrates of P-gp transporter,P-gp,may also inhibit
same,AUC(0-t),[6],1080 µg·h/mL
